Laboratory results from ChEMBL document CHEMBL1126374, “Synthesis of -(S)-acylamino-N-(hydroxydioxocyclobutenyl)--lactams as potential antibiotics” (Bioorg Med Chem Lett, 1992).
Calls of active or inactive are those of the source. The calls are words filed in the database; no cut-off is given here.

Key:
Staphylococcus aureus = assay: Tested for antibacterial activity against Staphylococcus aureus; IA - No useful antibacterial activity; format: functional, organism-based
Streptococcus pneumoniae = assay: Tested for antibacterial activity against Streptococcus pneumoniae; IA - No useful antibacterial activity; format: functional, organism-based
Escherichia coli = assay: Tested for antibacterial activity against Escherichia coli; IA - No useful antibacterial activity; format: functional, organism-based
[1] = Half life in pH 7 buffer solution was determined; format: ADME

| SMILES | Activity (Staphylococcus aureus) | Activity (Streptococcus pneumoniae) | Activity (Escherichia coli) | half-life [1] [h] |
| --- | --- | --- | --- | --- |
| CO/N=C(/C(=O)N[C@H]1CN(c2c(O)c(=O)c2=O)C1=O)c1csc(N)n1 | inactive | inactive | inactive |  |
| C[C@H]1[C@H](NC(=O)COc2ccccc2)C(=O)N1c1c([O-])c(=O)c1=O.[K+] | inactive | inactive | inactive | 168 |
| O=C(COc1ccccc1)N[C@H]1CN(c2c([O-])c(=O)c2=O)C1=O.[K+] | inactive | inactive | inactive | 72 |
